Where “and” joins values, the source holds several entries; their conditions need not be identical. Equal entries are not always repeated.
Legend:
h-CM cells = assay: Production and release of endogenous prostaglandins from h-CM cells; format: cell-based, human; details: BK 1 μM, relative to baseline and to fluprostenol
Method: A functional assay to discover BK agonists may involve the measurement of prostaglandin E2 (PGE2) production (Wiernas et al. Brit. J. Pharmacol. 123: 1127-1137, 1998), for instance, in cells isolated from human or animal ocular or non-ocular tissues, or cells expressing recombinant (preferably human) BK receptors. Cells expressing BK receptors are seeded in 48-wells culture plates and allowed to reach confluence. After this time the cells are rinsed twice with 0.5 mL of phosphate buffered saline and incubated with the test agent made up in 0.5 mL Dulbeco's modified Eagle's medium (DMEM)/F-12 for 1 h at 37° C. […]
After this incubation, all tubes are placed in an ice-bath and 1 ml cold precipitating reagent supplied in the kit is added to the tubes, the content mixed and incubated for 25 min at 4° C. […] The supernatants of all tubes are decanted as specified in the kit instructions and the RIA samples analyzed on a gamma-counter. The levels of PGE2 generated by the test agent are then quantified in comparison with the PGE2-standard curve. Dose-response data for the test agent are constructed and the potency and intrinsic activity determined as described above for other assays. […]

[1] = molecular target: T1, B2-receptors in h-NPE cells (Homo sapiens, UniProt P30411); assay: BK- and BK-related peptide-induced [Ca^2+]i mobilization in h-NPE cells (agonist potency); format: cell-based; details: BK = 100%, read-out: Intrinsic Activity (Emax, % max relative to BK)
T1 construct: we discovered and pharmacologically characterized B2-receptor proteins in h-TM, h-CM and h-NPE cells; endogenous in cells; host or cells: immortalized human non-pigmented ciliary epithelial (h-NPE) cells
T1 sequence (P30411 1-391): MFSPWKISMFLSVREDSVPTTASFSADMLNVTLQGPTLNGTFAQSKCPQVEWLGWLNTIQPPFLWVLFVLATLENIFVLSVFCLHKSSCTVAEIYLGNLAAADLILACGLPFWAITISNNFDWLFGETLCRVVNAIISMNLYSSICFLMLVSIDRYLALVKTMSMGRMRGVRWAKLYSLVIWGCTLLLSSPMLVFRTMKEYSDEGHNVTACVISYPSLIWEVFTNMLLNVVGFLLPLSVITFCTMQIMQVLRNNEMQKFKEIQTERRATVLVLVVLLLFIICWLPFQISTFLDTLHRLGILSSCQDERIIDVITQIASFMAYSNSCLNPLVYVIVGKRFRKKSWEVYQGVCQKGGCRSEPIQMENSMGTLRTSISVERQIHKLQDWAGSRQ

rabbit IOP = assay: Acute IOP response in rabbit eyes, intravitreal administration; format: in vivo; details: 50 μg, relative to vehicle alone
Method: IOP is determined with an applanation pneumatonometer after light corneal anesthesia with 0.1% proparacaine. After baseline IOP measurements are taken, one eye of each of 7-10 (or both eyes of 5) rabbits per compound dose is topically dosed with compound. Either the contralateral eye is dosed with vehicle or a separate group of rabbits is used for vehicle control. Subsequent IOP measurements are taken at 0.5, 1, 2, 3, and 4 hours. In cases where the compound has poor ocular bioavailability, the compound may need to be administered intracamerally or intravitreally in order to observe the IOP-lowering efficacy.
Conversely, non-peptidic BK antagonists dosed topical ocularly in the ocular hypertensive monkey eyes were ineffective at modulating IOP (see below Example 4).

[2] = molecular target: T2, BK B2-Receptor in h-NPE cells (Homo sapiens, UniProt P30411); assay: Antagonism of BK-induced [Ca^2+]i mobilization in immortalized h-NPE cells; format: cell-based; details: read-out: Antagonist Potency (Ki; nM) vs BK (10 nM) in [Ca^2+]i Mobilization Assay, mean ± SEM or individual experiments
T2 construct: we discovered and pharmacologically characterized B2-receptor proteins in h-TM, h-CM and h-NPE cells; endogenous in cells; host or cells: immortalized human non-pigmented ciliary epithelial (h-NPE) cells
T2 sequence (P30411 1-391): T1 sequence (P30411 1-391)
Method: (§1) Opthalmol. Vis. Res. 47: 4001-4019, 2006; Sharif et al., J. Ocular Pharmacol. Ther. 22: 291-309, 2006).
(§2) On the day of the experiment, one vial of FLIPR Calcium Assay Kit dye is re-suspended in 50 mL of a FLIPR buffer consisting of Hank's Balanced Salt Solution (HBSS), 20 mM HEPES, and 2.5 mM probenecid, pH 7.4. Cells are loaded with the calcium-sensitive dye by addition of an equal volume (50 μL) to each well of the 96-well plate and incubated with dye for 1 h at 23° C. After this time, the test compound plate and cell plate are placed in the FLIPR instrument. At the beginning of an experimental run, a signal test is performed to check the basal fluorescence signal from the dye-loaded cells and the uniformity of the signal across the plate. The basal fluorescence is adjusted between 8000-12000 counts by modifying the exposure time, the camera F-stop, or the laser power. Instrument settings for a typical assay are the following: laser power 0.3-0.6 W, camera F-stop F/2, and exposure time 0.4 sec.
(§3) Fluorescence data are collected in real-time at 1.0 sec intervals for the first 60 secs and at 6.0 sec intervals for an additional 120 secs. […] The data are then analyzed using an automated, iterative, sigmoidal curve-fitting computer program to obtain the potency and intrinsic activities of the test agents as previously described (Sharif et al. J. Pharmacol. Exp. Ther. 286: 1094-1102, 1998; Sharif et al. Invest. Opthalmol. Vis. Sci. 39:2562-2571, 1998; Kelly et al. J. Pharmacol. Exp. Ther. 304: 238-245, 2003). The sources of materials and reagents for such assays can be found in the references cited above.

[3] = molecular target: T3, BK B2-Receptor in h-CM cells (Homo sapiens, UniProt P30411); assay: Antagonism of BK-induced [Ca^2+]i mobilization in h-CM cells; format: cell-based; details: read-out: Antagonist Potency (Ki; nM) vs BK (10 nM) in [Ca^2+]i Mobilization Assay, mean ± SEM or individual experiments
T3 construct: we discovered and pharmacologically characterized B2-receptor proteins in h-TM, h-CM and h-NPE cells; endogenous in cells; host or cells: primary human ciliary muscle (h-CM) cells
T3 sequence (P30411 1-391): T1 sequence (P30411 1-391)
Method: as §1, §2, §3

[4] = tested on: Conscious Ocular Hypertensive Cynomolgus Monkey Eyes; assay: IOP response in conscious ocular hypertensive cynomolgus monkey eyes; format: in vivo; details: for % Change in IOP (mmHg): topical ocular 300 μg, mean ± SEM; for modulation of IOP (in words): topically administered 300 μg, conscious cynomolgus monkeys
Method: Intraocular pressure (IOP) is determined with an Alcon Pneumatonometer (Alcon Laboratories, Inc., Fort Worth, Tex.) after light corneal anesthesia with 0.1% proparacaine. Right eyes are hypertensive as a result of laser trabeculoplasty. After a baseline IOP measurement, test compound is instilled in the right eyes only of 8-10 cynomolgus monkeys. Vehicle is instilled in the right eyes of 5-6 additional animals. […] IOP measurements are also taken on left eyes (normotensive and untreated) at each of these time points. The percent change in IOP from baseline is determined for each animal for every IOP measurement (Sharif et al. J. Ocular Pharmacol. Ther. 17: 305-317, 2001; May et al., J Pharmacol Exp Ther. 306: 301-309, 2003; Sharif et al. Invest. Opthalmol. Vis. Res. 47: 4001-4010, 2006). Group mean and standard error of the mean (SEM) are calculated for each time point. […] In cases where the compound of invention has poor ocular bioavailability, the compound may need to be administered intracamerally or intravitreally in order to observe the IOP-lowering efficacy.

[5] = molecular target: T4, BK B2-Receptor in h-TM cells (Homo sapiens, UniProt P30411); assay: Antagonism of BK-induced [Ca^2+]i mobilization in h-TM cells; format: cell-based; details: read-out: Antagonist Potency (Ki; nM) vs BK (10 nM) in [Ca^2+]i Mobilization Assay, mean ± SEM or individual experiments
T4 construct: we discovered and pharmacologically characterized B2-receptor proteins in h-TM, h-CM and h-NPE cells; endogenous in cells; host or cells: primary human trabecular meshwork (h-TM) cells
T4 sequence (P30411 1-391): T1 sequence (P30411 1-391)
Method: as §1
as §2, with “Instrument settings for a typical assay are the following: laser power 0.3-0.6 W, camera F-stop F/2, and exposure time 0.4 sec.” left out
as §3, with “The sources of materials and reagents for such assays can be found in the references cited above.” left out

B2-receptor mRNA = assay: Microarray analysis of B2-receptor mRNA in TGFβ2-treated human TM cells; format: cell-based
B1-receptor mRNA = assay: Microarray analysis of B1-receptor mRNA in TGFβ2-treated human TM cells; format: cell-based; details: Glaucomatous h-TM cells, control 0.99 ± 0.58

O=C(O)CCC/C=C\C[C@@H]1[C@@H](/C=C/[C@@H](O)COc2cccc(C(F)(F)F)c2)[C@H](O)C[C@@H]1O (racemic) [fluprostenol]
production of prostaglandins (h-CM cells): stimulation of production and release of endogenous prostaglandins

N=C(N)NCCC[C@H](N)C(=O)N1CCC[C@H]1C(=O)N1CCC[C@H]1C(=O)NCC(=O)N[C@@H](Cc1ccccc1)C(=O)N[C@@H](CO)C(=O)N1CCC[C@H]1C(=O)N[C@@H](Cc1ccccc1)C(=O)O [Des-Arg^9-BK]
Emax [1]: 70 to 77%
effect on rabbit IOP (rabbit IOP): not

CNC(=O)c1ccc(/C=C/C(=O)NCC(=O)N(C)c2ccc(Cl)c(COc3cccc4ccc(C)nc34)c2Cl)cc1 [FR-165649]
Ki [2]: 393 nM and 337 nM
Ki [3]: 11 nM and 4 nM
% Change in IOP (mmHg) ([4]; Dose 1/1 hr post-dose): 1.0 ± 3.1%
% Change in IOP (mmHg) ([4]; Dose 1/3 hr post-dose): 0.7 ± 3.5%
% Change in IOP (mmHg) ([4]; Dose 1/6 hr post-dose): −6.2 ± 4.7%
% Change in IOP (mmHg) ([4]; Dose 1/24 hr post-dose): −4.0 ± 3.2%
modulation of IOP (in words) [4]: failed to modulate IOP

Cc1nc2c(OCc3c(Cl)ccc(N(C)C(=O)CNC(=O)/C=C/c4ccc(C(=O)N(C)C)cc4)c3Cl)cccn2c1Br [FR-167344]
Ki [2]: 393 nM and 223 nM
Ki [5]: 69 nM and 19 nM
Ki [3]: 13 nM and 4 nM

CC(=O)Nc1ccc(/C=C/C(=O)NCC(=O)N(C)c2ccc(Cl)c(COc3cccc4ccc(C)nc34)c2Cl)cn1 [FR-173657]
Ki [2]: 787 nM and 788 nM
Ki [5]: 121 nM and 193 nM
Ki [3]: 35 nM and 11 nM

CSCC[C@H](N)C(=O)N[C@@H](CCCCN)C(=O)N[C@@H](CCCNC(=N)N)C(=O)N1CCC[C@H]1C(=O)N1CCC[C@H]1C(=O)NCC(=O)N[C@@H](Cc1ccccc1)C(=O)N[C@@H](CO)C(=O)N1CCC[C@H]1C(=O)N[C@@H](Cc1ccccc1)C(=O)N[C@@H](CCCNC(=N)N)C(=O)O [Met-Lys-BK]
Emax [1]: 70 to 77%

CCCC[P+](CCCC)(CCCC)Cc1ccc(NC(=O)[C@H](Cc2ccc3ccccc3c2)NC(=NC2CCCCC2)NC2CCCCC2)cc1.[Cl-] [WIN-64338]
% Change in IOP (mmHg) ([4]; Dose 1/1 hr post-dose): 1.7 ± 1.6%
% Change in IOP (mmHg) ([4]; Dose 1/3 hr post-dose): −10.4 ± 2.8%
% Change in IOP (mmHg) ([4]; Dose 1/6 hr post-dose): 1.3 ± 1.3%
modulation of IOP (in words) [4]: failed to modulate IOP

B1: TGFβ2: cytokine transforming growth factor-β2 (protein, UniProt P61812 303-414, looked up)
Transforming growth factor …: ALDAAYCFRNVQDNCCLRPLYIDFKRDLGWKWIHEPKGYNANFCAGACPYLWSSDTQHSRVLSLYNTINPEASASPCCVSQDLEPLTILYYIGKTPKIEQLSNMIVKSCKCS
Normalized level of B2-receptor mRNA (GC-RMA, mean ± SEM) (B2-receptor mRNA; Glaucomatous h-TM cells, after 1.5 hr, control 0.99 ± 0.04): 0.97 ± 0.06
Normalized level of B2-receptor mRNA (GC-RMA, mean ± SEM) (B2-receptor mRNA; Glaucomatous h-TM cells, after 16 hr, control 0.99 ± 0.04): 0.24 ± 0.06
Normalized level of B2-receptor mRNA (GC-RMA, mean ± SEM) (B2-receptor mRNA; Normal h-TM cells, after 1.5 hr, control 0.99 ± 0.06): 0.68 ± 0.05
Normalized level of B2-receptor mRNA (GC-RMA, mean ± SEM) (B2-receptor mRNA; Normal h-TM cells, after 16 hr, control 0.99 ± 0.06): 0.14 ± 0.11
Normalized level of B1-receptor mRNA (GC-RMA, mean ± SEM) (B1-receptor mRNA; after 1.5 hr): 1.54 ± 0.09
Normalized level of B1-receptor mRNA (GC-RMA, mean ± SEM) (B1-receptor mRNA; after 16 hr): 0.53 ± 0.05

From US8263555B2 (Alcon Research, Ltd., priority 2007, dated 2012)
